Source: patent US9402399B2, “Pesticidal mixtures including isoxazoline derivatives” (Syngenta Participations AG, priority 2011, dated 2016)

Test system: Tetranychus urticae
Experiment: Tetranychus urticae (Two Spotted Spider Mite) contact/feeding activity, adult mortality on sprayed bean plants
Format: in vivo
Experimental: Tetranychus urticae (Two Spotted Spider Mite)
(Contact/Feeding Activity)
Bean plants are infested with mite populations of mixed ages. 1 day after infestation, plants are treated in a spray chamber with diluted test solutions. 1 and 8 days later, samples are checked for adult mortality. 2 replicates per treatment were evaluated.
Data is not shown for experiments where there was no insect mortality when the compounds were applied alone and in combination. When a compound applied alone gave no control at a particular rate, it is assumed that lower rates of that compound alone also give no control.

Question: With `CC1(C)[C@H](C(=O)O[C@H](C#N)c2cccc(Oc3ccccc3)c2)[C@@H]1/C=C(\Cl)C(F)(F)F` (racemic) [LCYH, lambda cyhalothrin] as the molecule, how does the “LCYH observed control %” value (LCYH alone 0.781 ppm) read?
Answer: 0%

Question: And the “LCYH observed control %” value (LCYH alone 1.562 ppm)?
Answer: 0%

Question: What about the “LCYH observed control %” value (LCYH alone 3.125 ppm) of the same molecule?
Answer: 0%

Question: And the “LCYH observed control %” value (LCYH alone 6.25 ppm)?
Answer: 25%

Question: And the “LCYH observed control %” value (LCYH alone 12.5 ppm)?
Answer: 75%

Question: And the “LCYH observed control %” value (LCYH alone 25 ppm)?
Answer: 80%

Question: And the “LCYH observed control %” value (LCYH alone 50 ppm)?
Answer: 85%

Question: What about the “LCYH observed control %” value (LCYH alone 100 ppm) of the same molecule?
Answer: 95%

Question: For `CC(C)c1cc(Oc2ccccc2)cc(C(C)C)c1NC(=S)NC(C)(C)C` [DFN, diafenthiuron], which “DFN observed control %” value (DFN alone 1.562 ppm) is on record?
Answer: 0%

Question: What about the “DFN observed control %” value (DFN alone 3.125 ppm) of the same molecule?
Answer: 0%

Question: What about the “DFN observed control %” value (DFN alone 6.25 ppm) of the same molecule?
Answer: 25%

Question: And the “DFN observed control %” value (DFN alone 12.5 ppm)?
Answer: 60%

Question: And the “DFN observed control %” value (DFN alone 25 ppm)?
Answer: 95%

Question: Which results are given for `CN1COCN(Cc2cnc(Cl)s2)/C1=N\[N+](=O)[O-]` [TMX, thiamethoxam]?
Answer: TMX observed control % (TMX alone 50 ppm): 0%; TMX observed control % (TMX alone 100 ppm): 0%; TMX observed control % (TMX alone 200 ppm): 0%; TMX observed control % (TMX alone 400 ppm): 0%
